Molecules are shown by their SMILES. A value given as a limit tells only on which side of the number the result lay.

The record followed here is patent US11014911B2, “CDK2 inhibitors” (Pfizer Inc., priority 2019, dated 2021).

The target in assay [1] is CDK2/Cyclin E1 full length (Homo sapiens (Human), UniProt P24941). Kind of assay: CDK2/Cyclin E1 full length mobility shift assay. The format is biochemical.
Another assay addresses GSK3β (H350L) (Homo sapiens (Human), UniProt P49841). Conditions: read-out: GSK3β Ki.

Sequence of GSK3β (H350L) (P49841 whole entry, stated change not applied): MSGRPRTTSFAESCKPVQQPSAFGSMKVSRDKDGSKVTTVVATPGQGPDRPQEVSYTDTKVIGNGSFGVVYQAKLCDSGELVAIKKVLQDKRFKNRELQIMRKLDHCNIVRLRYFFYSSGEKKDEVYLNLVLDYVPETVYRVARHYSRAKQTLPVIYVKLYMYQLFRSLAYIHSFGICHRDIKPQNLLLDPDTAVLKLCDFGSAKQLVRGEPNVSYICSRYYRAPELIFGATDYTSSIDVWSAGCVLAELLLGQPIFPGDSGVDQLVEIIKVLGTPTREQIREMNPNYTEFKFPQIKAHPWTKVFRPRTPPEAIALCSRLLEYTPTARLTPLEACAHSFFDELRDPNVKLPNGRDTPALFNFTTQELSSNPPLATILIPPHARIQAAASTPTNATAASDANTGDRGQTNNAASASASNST
Protocol for GSK3β (H350L): The assay was initiated with the addition of ATP, following 15 minutes pre-incubation of enzyme and inhibitor at room temperature in the reaction mixture. The reaction was stopped after 30 minutes at room temperature by the addition of 50 μL of 80 mM EDTA.

For the molecule `CC(C)(C)NC(=O)O[C@@H]1CC[C@H](c2cc(NC(=O)Cc3ccno3)n[nH]2)C1` [Example 108], the Ki in assay [1] came out at 0.15 nM; at GSK3β (H350L), 38.8 nM.

For `COc1cnc(CC(=O)Nc2cc([C@H]3CC[C@@H](OC(=O)NC(C)(C)C)C3)[nH]n2)cn1` [Example 109], the Ki was determined as 0.68 nM in assay [1] and 39.2 nM at GSK3β (H350L).

For `COCc1cc(C(=O)Nc2cc([C@H]3CC[C@@H](OC(=O)NC(C)(C)C)C3)[nH]n2)n(C)n1` [Example 111], the Ki in assay [1] is 0.38 nM; at GSK3β (H350L), 772 nM.

As to `Cn1cc(CC(=O)Nc2cc([C@H]3CC[C@@H](OC(=O)NC(C)(C)C)C3)[nH]n2)cn1` [Example 112], the results for the Ki (in assay [1]; on GSK3β (H350L)) were 0.15 nM and 40.2 nM, respectively.

As for `Cc1ncc(CC(=O)Nc2cc([C@H]3CC[C@@H](OC(=O)NC(C)(C)C)C3)[nH]n2)s1` [Example 113], the results for the Ki (in assay [1]; on GSK3β (H350L)) were 0.16 nM and 11.1 nM, respectively.

For `COc1ccc(CC(=O)Nc2cc([C@H]3CC[C@@H](OC(=O)NC(C)(C)C)C3)[nH]n2)cn1` [Example 114], the Ki turned out to be 0.19 nM in assay [1] and 5.65 nM at GSK3β (H350L).

In the case of `Cc1ncc(CC(=O)Nc2cc([C@H]3CC[C@@H](OC(=O)NC4(C)CCCC4)C3)[nH]n2)s1` [Example 116], the results for the Ki (in assay [1]; on GSK3β (H350L)) were 0.13 nM and 8.86 nM, respectively.

In the case of `CC1(NC(=O)O[C@@H]2CC[C@H](c3cc(NC(=O)Cc4ccno4)n[nH]3)C2)CCCC1` [Example 117], the Ki in assay [1] was 0.14 nM; on GSK3β (H350L) it was 15.9 nM.

For the molecule `Cc1cnc(CC(=O)Nc2cc([C@H]3CC[C@@H](OC(=O)NC4(C)CCC4)C3)[nH]n2)o1` [Example 118], the Ki in assay [1] stood at 0.22 nM; on GSK3β (H350L), 17.8 nM.

As to `Cn1cc(CC(=O)Nc2cc([C@H]3CC[C@@H](OC(=O)NC4(C)CCC4)C3)[nH]n2)cn1` [Example 119], the Ki in assay [1] was determined as 0.13 nM; on GSK3β (H350L), 19.3 nM.

`CC1(NC(=O)O[C@@H]2CC[C@H](c3cc(NC(=O)Cc4ccno4)n[nH]3)C2)CC1` [Example 128]: the Ki in assay [1] amounted to 0.15 nM; on GSK3β (H350L) it was 55.4 nM.

On to `CC1(NC(=O)O[C@@H]2CC[C@H](c3cc(NC(=O)Cc4cc(Cl)ccn4)n[nH]3)C2)CC1` [Example 129], for which the Ki in assay [1] came to 0.2 nM; on GSK3β (H350L), 31.6 nM.

As to `Cc1cc(CC(=O)Nc2cc([C@H]3CC[C@@H](OC(=O)N4CCCCC4(C)C)C3)[nH]n2)on1` [Example 133], the Ki in assay [1] was 0.11 nM; at GSK3β (H350L), 7 nM.

Take `Cc1cc(CC(=O)Nc2cc([C@H]3CC[C@@H](OC(=O)N4CCCC4(C)C)C3)[nH]n2)on1` [Example 134]: the Ki stood at 0.12 nM in assay [1] and 7.12 nM on GSK3β (H350L).

Take `CC1(C)CCCN1C(=O)O[C@@H]1CC[C@H](c2cc(NC(=O)Cc3ccon3)n[nH]2)C1` [Example 135]: the Ki came out at 0.19 nM in assay [1] and 11.7 nM at GSK3β (H350L).

Regarding `Cn1ccc(CC(=O)Nc2cc([C@H]3CC[C@@H](OC(=O)N4CCCC4(C)C)C3)[nH]n2)n1` [Example 136], the inhibitory constant (Ki) came to 0.22 nM in assay [1] and 8.22 nM on GSK3β (H350L).

As for `CC1(C)CCCN1C(=O)O[C@@H]1CC[C@H](c2cc(NC(=O)Cc3cnc4ncnn4c3)n[nH]2)C1` [Example 137], the Ki is 0.09 nM in assay [1] and 6.07 nM at GSK3β (H350L).

With `CC1(C)CCCN1C(=O)O[C@@H]1CC[C@H](c2cc(NC(=O)Cc3cnco3)n[nH]2)C1` [Example 138], the results for the Ki (in assay [1]; at GSK3β (H350L)) were 0.23 nM and 7.06 nM, respectively.

Consider `Cc1ncc(CC(=O)Nc2cc([C@H]3CC[C@@H](OC(=O)N4CCC[C@@H]4C)C3)[nH]n2)s1` [Example 139], for which the Ki in assay [1] was 0.21 nM; at GSK3β (H350L), 8.48 nM.

Consider `C[C@H]1CCCN1C(=O)O[C@@H]1CC[C@H](c2cc(NC(=O)Cc3cnc4ncnn4c3)n[nH]2)C1` [Example 141], for which the Ki in assay [1] turned out to be 0.08 nM; on GSK3β (H350L), 5.75 nM.

Take `CC1(C)CCN1C(=O)O[C@@H]1CC[C@H](c2cc(NC(=O)Cc3ccccc3S(C)(=O)=O)n[nH]2)C1` [Example 142]: the Ki in assay [1] was determined as 0.22 nM; on GSK3β (H350L), 17.7 nM.

In the case of `CC1(C)CCN1C(=O)O[C@H]1CC[C@@H](c2cc(NC(=O)Cc3ccccc3S(C)(=O)=O)n[nH]2)C1` [Example 143], the Ki came out at 0.25 nM in assay [1] and 15.8 nM on GSK3β (H350L).

As to `COc1ccc(CC(=O)Nc2cc([C@H]3CC[C@@H](OC(=O)N4CCC4(C)C)C3)[nH]n2)cn1` [Example 144], the Ki turned out to be 0.1 nM in assay [1] and 1.26 nM at GSK3β (H350L).

In the case of `COc1cc(CC(=O)Nc2cc([C@H]3CC[C@@H](OC(=O)N4CCC4(C)C)C3)[nH]n2)ccn1` [Example 146], the Ki in assay [1] worked out at 0.07 nM; at GSK3β (H350L), 3.47 nM.

Take `Cc1cnc(CC(=O)Nc2cc([C@H]3CC[C@@H](OC(=O)N4CCC4(C)C)C3)[nH]n2)o1` [Example 147]: the Ki in assay [1] stood at 0.25 nM; on GSK3β (H350L), 6.87 nM.

On to `Cn1cc(CC(=O)Nc2cc([C@H]3CC[C@@H](OC(=O)N4CCC4(C)C)C3)[nH]n2)cn1` [Example 148], for which the Ki in assay [1] was determined as 0.24 nM; at GSK3β (H350L) it was 5.57 nM.

Take `COc1cc(CC(=O)Nc2cc([C@H]3CC[C@@H](OC(=O)N4[C@@H](C)C[C@@H]4C)C3)[nH]n2)ccn1` [Example 149]: the Ki in assay [1] worked out at 0.06 nM; at GSK3β (H350L) it was 5.58 nM.

Take `Cc1cc(CC(=O)Nc2cc([C@H]3CC[C@@H](OC(=O)N4[C@@H](C)C[C@@H]4C)C3)[nH]n2)on1` [Example 150]: the values for the Ki (in assay [1]; at GSK3β (H350L)) were 0.25 nM and 8.35 nM, respectively.

Regarding `CCCNC(=O)O[C@H]1CC[C@@H](c2cc(NC(=O)c3ccnn3C)n[nH]2)C1` [Example 163, (1S,3R)-3-(3-{[(1-methyl-1H-pyrazol-5-yl)carbonyl]amino}-1H-pyrazol-5-yl)cyclopentyl propylcarbamate], the Ki in assay [1] turned out to be 0.32 nM; at GSK3β (H350L) it was 16.6 nM.

In the case of `CCCNC(=O)O[C@@H]1CC[C@H](c2cc(NC(=O)c3ccnn3C)n[nH]2)C1` [Example 164, (1R,3S)-3-(3-{[(1-methyl-1H-pyrazol-5-yl)carbonyl]amino}-1H-pyrazol-5-yl)cyclopentyl propylcarbamate], the figures for the Ki (in assay [1]; on GSK3β (H350L)) were 0.72 nM and 44.7 nM, respectively.

Consider `CCCNC(=O)O[C@H]1CC[C@@H](c2cc(NC(=O)Cc3cnco3)n[nH]2)C1` [Example 166, (1S,3R)-3-{3-[(1,3-oxazol-5-ylacetyl)amino]-1H-pyrazol-5-yl}cyclopentyl propylcarbamate], for which the Ki in assay [1] came to 0.4 nM; at GSK3β (H350L), 24.3 nM.

As for `CCCNC(=O)O[C@@H]1CC[C@H](c2cc(NC(=O)Cc3cnco3)n[nH]2)C1` [Example 167, (1R,3S)-3-{3-[(1,3-oxazol-5-ylacetyl)amino]-1H-pyrazol-5-yl}cyclopentyl propylcarbamate], the Ki in assay [1] worked out at 1.4 nM; at GSK3β (H350L), 33.9 nM.

As to `CCCNC(=O)O[C@H]1CC[C@@H](c2cc(NC(=O)Cc3ccno3)n[nH]2)C1` [Example 168, (1S,3R)-3-{3-[(1,2-oxazol-5-ylacetyl)amino]-1H-pyrazol-5-yl}cyclopentyl propylcarbamate], the Ki in assay [1] is 0.36 nM; at GSK3β (H350L) it was 25.8 nM.

With `CCCNC(=O)O[C@@H]1CC[C@H](c2cc(NC(=O)Cc3ccno3)n[nH]2)C1` [Example 169, (1R,3S)-3-{3-[(1,2-oxazol-5-ylacetyl)amino]-1H-pyrazol-5-yl}cyclopentyl propylcarbamate], the Ki was 1.63 nM in assay [1] and 29.6 nM at GSK3β (H350L).

Consider `CCCNC(=O)O[C@H]1CC[C@@H](c2cc(NC(=O)c3ccnc(C)c3)n[nH]2)C1` [Example 170, (1S,3R)-3-(3-{[(2-methylpyridin-4-yl)carbonyl]amino}-1H-pyrazol-5-yl)cyclopentyl propylcarbamate], for which the figures for the Ki (in assay [1]; at GSK3β (H350L)) were 1.37 nM and above 191 nM, respectively.

`CCCNC(=O)O[C@H]1CC[C@@H](c2cc(NC(=O)Cc3ccccn3)n[nH]2)C1` [Example 171, (1S,3R)-3-{3-[(pyridin-2-ylacetyl)amino]-1H-pyrazol-5-yl}cyclopentyl propylcarbamate]: the Ki in assay [1] was 1.73 nM; on GSK3β (H350L), 18.2 nM.

In the case of `CCCNC(=O)O[C@H]1CC[C@@H](c2cc(NC(=O)c3cc(C)nn3C)n[nH]2)C1` [Example 172, (1S,3R)-3-(3-{[(1,3-dimethyl-1H-pyrazol-5-yl)carbonyl]amino}-1H-pyrazol-5-yl)cyclopentyl propylcarbamate], the Ki in assay [1] was determined as 1.2 nM; on GSK3β (H350L), 102 nM.

On to `CCCNC(=O)O[C@@H]1CC[C@H](c2cc(NC(=O)c3cc(C)nn3C)n[nH]2)C1` [Example 173, (1R,3S)-3-(3-{[(1,3-dimethyl-1H-pyrazol-5-yl)carbonyl]amino}-1H-pyrazol-5-yl)cyclopentyl propylcarbamate], for which the Ki was 2.29 nM in assay [1] and above 191 nM on GSK3β (H350L).

Regarding `CCCNC(=O)O[C@H]1CC[C@@H](c2cc(NC(=O)c3cn(C)nc3C)n[nH]2)C1` [Example 174, (1S,3R)-3-(3-{[(1,3-dimethyl-1H-pyrazol-4-yl)carbonyl]amino}-1H-pyrazol-5-yl)cyclopentyl propylcarbamate], the Ki in assay [1] was 3 nM; at GSK3β (H350L), above 95.3 nM.

In the case of `CCCNC(=O)O[C@H]1CC[C@@H](c2cc(NC(=O)Cc3cnc(C)o3)n[nH]2)C1` [Example 175, (1S,3R)-3-(3-{[(2-methyl-1,3-oxazol-5-yl)acetyl]amino}-1H-pyrazol-5-yl)cyclopentyl propylcarbamate], the Ki is 0.82 nM in assay [1] and 39.7 nM at GSK3β (H350L).

Consider `CCCNC(=O)O[C@@H]1CC[C@H](c2cc(NC(=O)Cc3cnc(C)o3)n[nH]2)C1` [Example 176, (1R,3S)-3-(3-{[(2-methyl-1,3-oxazol-5-yl)acetyl]amino}-1H-pyrazol-5-yl)cyclopentyl propylcarbamate], for which the Ki was determined as 2.5 nM in assay [1] and 46.1 nM at GSK3β (H350L).

With `CCCNC(=O)O[C@H]1CC[C@@H](c2cc(NC(=O)Cc3cc(C)no3)n[nH]2)C1` [Example 177, (1S,3R)-3-(3-{[(3-methyl-1,2-oxazol-5-yl)acetyl]amino}-1H-pyrazol-5-yl)cyclopentyl propylcarbamate], the Ki was 0.43 nM in assay [1] and 19 nM at GSK3β (H350L).

In general, Ki refers to a dissociation constant, usually derived from enzyme kinetics or from competition with a known ligand.
